Data on 25 molecules can be found in patent US4413009A, “N-((Alkylamino)carbonyl)-N-(((alkylamino)carbonyl)oxy)acylamides with antineoplastic activity” (priority 1982, dated 1983).

The experiment has as its system HeLa cells. Briefly: HeLa cell colony cytotoxicity / growth inhibition test. In kind it is cell-based, human. The note with it: 8 days, 0-50 μg/ml. Here is the method:
HeLa cells were seeded in 24-well tissue culture plates at a concentration of 30 cells per well in 1 ml of growth medium (Eagle's minimum essential medium with 5 percent HIFCS). The plates were incubated at 36° C. for 24 hours after which the growth medium was removed. The cells were resuspended in 1 ml of fresh growth medium described above together with a measured quantity of (0-50 μg/ml) of one of the compounds of this invention. The 0 μg/ml concentration served as a control. The tissue culture plates were then incubated at 36° C. for 8 days at which time the medium was removed and the cells were fixed and stained with 0.1% crystal violet in 20% ethanol. The HeLa cell colonies were counted macroscopically, and comparisons of colony size in treated and control wells were made. Test compounds were considered cytotoxic at concentrations which reduced the number of HeLa cell colonies compared to control by 50% or more. Test compounds of the invention were considered to cause HeLa cell growth inhibition at concentrations which reduced the size of colonies by a measurable amount when compared to control.
Regarding `CCNC(=O)ON(C(C)=O)C(=O)NCC` [Example 2, N-((Ethylamino)carbonyl)-N-(((ethylamino)-carbonyl)oxy)acetamide], the “Cell Growth Inhibition: concentration at which the size of the HeLa colonies were reduced by a measurable amount (as compared to control)” value came to 12.5 µg/mL. The result for `CC(=O)N(OC(=O)NC(C)(C)C)C(=O)NC(C)(C)C` [Example 3, N-(((1,1-dimethylethyl)amino)carbonyl)-N-((((1,1-dimethylethyl)amino)carbonyl)oxy)acetamide] reads 12.5 µg/mL.

For the molecule `CCC(=O)N(OC(=O)NC)C(=O)NC` [Example 4, N-((methylamino)carbonyl)-N-(((methyl-amino)carbonyl)oxy)propionamide], the “Cell Growth Inhibition: concentration at which the size of the HeLa colonies were reduced by a measurable amount (as compared to control)” value came to 12.5 µg/mL. The result for `CCNC(=O)ON(C(=O)CC)C(=O)NCC` [Example 5, N-((ethylamino)carbonyl)-N-(((ethylamino)-carbonyl)oxy)propionamide] reads 50 µg/mL; that for `CNC(=O)ON(C(=O)NC)C(=O)C(C)(C)C` [Example 6, N-((Methylamino)carbonyl)-N-(((methylamino)-carbonyl)oxy)(2,2-dimethyl)propionamide], 12.5 µg/mL; that for `CC(=O)N(OC(=O)NC1CCCCC1)C(=O)NC1CCCCC1` [Example 7, N-((Cyclohexylamino)carbonyl)-N-(((cyclohexylamino)carbonyl)oxy)acetamide], 1.6 µg/mL. The result for `CC(=O)N(OC(=O)NC(C)C)C(=O)NC(C)C` [Example 8, N-(((1-Methylethyl)amino)carbonyl)-N-((((1-methylethyl)amino)carbonyl)oxy)acetamide] reads 1.6 µg/mL; that for `CCCNC(=O)ON(C(C)=O)C(=O)NCCC` [Example 9, N-((Propylamino)carbonyl)-N-(((propylamino)carbonyl)oxy)acetamide], 6.3 µg/mL; that for `CC(=O)N(OC(=O)Nc1ccccc1)C(=O)Nc1ccccc1` [Example 10, N-((Phenylamino)carbonyl)-N-(((phenylamino)carbonyl)oxy)acetamide], 50 µg/mL. The result for `CC(=O)N(OC(=O)Nc1cccc(C)c1)C(=O)Nc1cccc(C)c1` [Example 11, N-(((3-methylphenyl)amino)carbonyl)-N-((((3-methylphenyl)amino)carbonyl)oxy)acetamide] reads 50 µg/mL. Take `CC(=O)N(OC(=O)Nc1ccc(C)cc1)C(=O)Nc1ccc(C)cc1` [Example 12, N-(((4-Methylphenyl)amino)carbonyl)-N-((((4-methylphenyl)amino)carbonyl)oxy)acetamide]: the “Cell Growth Inhibition: concentration at which the size of the HeLa colonies were reduced by a measurable amount (as compared to control)” value came to 12.5 µg/mL. The result for `CCCCNC(=O)ON(C(C)=O)C(=O)NCCCC` [Example 13, N-((Butylamino)carbonyl)-N-(((butylamino)carbonyl)oxy)acetamide] reads 3.1 µg/mL; that for `CC(C)NC(=O)ON(C(=O)NC(C)C)C(=O)c1ccccc1` [Example 14, N-(((1-Methylethyl)amino)carbonyl)-N-((((1-methylethyl)amino)carbonyl)oxy)benzamide], 0.8 µg/mL. The result for `CNC(=O)ON(C(=O)NC)C(=O)c1ccccc1` [Example 15, N-((Methylamino)carbonyl)-N-(((methylamino)-carbonyl)oxy)benzamide] reads 3.1 µg/mL. The result for `CCNC(=O)ON(C(=O)NCC)C(=O)c1ccccc1` [Example 16, N-((Ethylamino)carbonyl)-N-(((ethylamino)-carbonyl)oxy)benzamide] reads 12.5 µg/mL. On to `CCCNC(=O)ON(C(=O)NCCC)C(=O)c1ccccc1` [Example 17, N-((Propylamino)carbonyl)-N-(((propylamino)-carbonyl)oxy)benzamide], for which the “Cell Growth Inhibition: concentration at which the size of the HeLa colonies were reduced by a measurable amount (as compared to control)” value amounted to 12.5 µg/mL. The result for `CCCCNC(=O)ON(C(=O)NCCCC)C(=O)c1ccccc1` [Example 18, N-((Butylamino)carbonyl)-N-(((butylamino)-carbonyl)oxy)benzamide] reads 0.8 µg/mL; that for `CC(C)(C)NC(=O)ON(C(=O)NC(C)(C)C)C(=O)c1ccccc1` [Example 19, N-(((1,1-Dimethylethyl)amino)carbonyl)-N-((((1,1-dimethylethyl)amino)carbonyl)oxy)benzamide], 50 µg/mL; that for `O=C(Nc1ccccc1)ON(C(=O)Nc1ccccc1)C(=O)c1ccccc1` [Example 20, N-((Phenylamino)carbonyl)-N-(((phenyl-amino)carbonyl)oxy)benzamide], 50 µg/mL. The result for `CCCNC(=O)ON(C(=O)NCCC)C(=O)C1CC1` [Example 22, N-((Propylamino)carbonyl)-N-(((propyl-amino)carbonyl)oxy)cyclopropanecarboxamide] reads 3.1 µg/mL.

On to `CNC(=O)ON(C(=O)NC)C(=O)C1CC1` [Example 23, N-((Methylamino)carbonyl)-N-(((methylamino)carbonyl)oxy)cyclopropanecarboxamide], for which the “Cell Growth Inhibition: concentration at which the size of the HeLa colonies were reduced by a measurable amount (as compared to control)” value came to 12.5 µg/mL.

On to `CCNC(=O)ON(C(=O)NCC)C(=O)C1CC1` [Example 24, N-((Ethylamino)carbonyl)-N-(((ethylamino)carbonyl)oxy)cyclopropanecarboxamide], for which the “Cell Growth Inhibition: concentration at which the size of the HeLa colonies were reduced by a measurable amount (as compared to control)” value worked out at 3.1 µg/mL. The result for `CC(C)NC(=O)ON(C(=O)NC(C)C)C(=O)C1CC1` [Example 25, N-(((1-Methylethyl)amino)carbonyl)-N-((((1-methylethyl)amino)carbonyl)oxy)cyclopropanecarboxamide] reads 3.1 µg/mL; that for `CCCCNC(=O)ON(C(=O)NCCCC)C(=O)C1CC1` [Example 26, N-((Butylamino)carbonyl)-N-(((butylamino)carbonyl)oxy)cyclopropanecarboxamide], 12.5 µg/mL.

Take `CC(C)(C)NC(=O)ON(C(=O)NC(C)(C)C)C(=O)C1CC1` [Example 27, N-(((1,1-Dimethylethyl)amino)carbonyl)-N-((((1,1-dimethylethyl)amino)carbonyl)oxy)cyclopropanecarboxamide]: the “Cell Growth Inhibition: concentration at which the size of the HeLa colonies were reduced by a measurable amount (as compared to control)” value was 50 µg/mL.
